Broadly, the IC50 is the point on the concentration scale where inhibition reaches its midpoint.

Structures are written as SMILES.

The assay addresses T1, human DP2 receptor (Homo sapiens, UniProt Q9Y5Y4).
T1 construct: expressed in transfected cells
T1 sequence (Q9Y5Y4 1-395): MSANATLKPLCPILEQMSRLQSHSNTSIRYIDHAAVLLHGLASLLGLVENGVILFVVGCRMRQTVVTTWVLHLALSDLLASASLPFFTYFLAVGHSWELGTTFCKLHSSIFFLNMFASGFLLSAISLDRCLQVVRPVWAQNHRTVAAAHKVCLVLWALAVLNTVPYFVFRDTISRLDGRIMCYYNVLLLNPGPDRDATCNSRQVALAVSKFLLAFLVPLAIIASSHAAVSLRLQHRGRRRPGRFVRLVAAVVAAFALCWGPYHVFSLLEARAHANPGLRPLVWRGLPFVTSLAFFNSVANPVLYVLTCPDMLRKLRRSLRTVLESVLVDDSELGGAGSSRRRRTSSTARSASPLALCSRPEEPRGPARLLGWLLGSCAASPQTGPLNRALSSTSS
Put plainly: DP2/CRTH2 radioligand binding assay using [3H]PGD2. The following applies: hDP2 (CRTH2) binding assay, membranes of HEK293 cells expressing recombinant human DP2. As for the experimental part: The ability of a compound to bind to the human DP2 receptor is assessed via a radioligand binding assay using [^3H]PGD2. HEK293 cells stably expressing recombinant human DP2 are resuspended in 10 mM Hepes, 7.4 containing 1 mM DTT, lysed and centrifuged at 75,000×g to pellet the membranes. The membranes are resuspended in 10 mM Hepes, 7.4 containing 1 mM DTT and 10% glycerol to approximately 5 mg protein/ml. Membranes (2-10 μg protein/well) are incubated in 96-well plates with 1 nM [^3H]PGD2 and test compound in Assay Buffer (50 mM Hepes, 10 mM MnCl2, 1 mM EDTA, plus or minus 0.2% human serum albumin, pH 7.4) for 60 minutes at room temperature. The reactions are terminated by rapid filtration through Whatman GF/C glass fibre filter plates. The filter plates were pre-soaked in 0.33% polyethylenimine for 30 minutes at room temperature then washed in Wash Buffer (50 mM Hepes, 0.5 M NaCl pH 7.4) prior to harvesting. After harvesting, the filter plates are washed 3 times with 1 ml cold Wash Buffer then dried. Scintillant is then added to the plates and the radioactivity retained on the filters is determined on a Packard TopCount (Perkin Elmer). Specific binding is determined as total radioactive binding minus non-specific binding in the presence of 10 μM PGD2. IC50s were determined using GraphPad prism analysis of drug titration curves.
Take `CCN(Cc1cc(C(F)(F)F)ccc1Oc1cccc(CC(=O)O)c1)S(=O)(=O)c1ccc2ccccc2c1` [Compound 1-30, [3-(2-{[Ethyl-(naphthalene-2-sulfonyl)-amino]-methyl}-4-trifluoromethyl-phenoxy)-phenyl]-acetic acid]: the IC50 is < 300 nM. For `CCN(Cc1cc(C(F)(F)F)ccc1Oc1cccc(CC(=O)O)c1)S(=O)(=O)c1ccc(Br)cc1` [Compound 1-31, [3-(2-{[(4-Bromo-benzenesulfonyl)-ethyl-amino]-methyl}-4-trifluoromethyl-phenoxy)-phenyl]-acetic acid] the value was < 300 nM; for `CCN(Cc1cc(C(F)(F)F)ccc1Oc1cccc(CC(=O)O)c1)S(=O)(=O)c1ccc(Nc2cccc(C)c2)cc1` [Compound 1-32, [3-(2-{[Ethyl-(4-m-tolylamino-benzenesulfonyl)-amino]-methyl}-4-trifluoromethyl-phenoxy)-phenyl]-acetic acid], < 300 nM; for `CCN(Cc1cc(C(F)(F)F)ccc1Oc1cccc(CC(=O)O)c1)S(=O)(=O)c1ccc(N(C)c2cccc(C)c2)cc1` [Compound 1-33, {3-[2-({Ethyl-[4-(methyl-m-tolyl-amino)-benzenesulfonyl]-amino}-methyl)-4-trifluoromethyl-phenoxy]-phenyl}-acetic acid], < 300 nM. With `CCN(Cc1cc(C(F)(F)F)ccc1Oc1cc(CC(=O)O)ccc1OC)C(C)=O` [Compound 1-34, (3-{2-[(Acetyl-ethyl-amino)-methyl]-4-trifluoromethyl-phenoxy}-4-methoxy-phenyl)-acetic acid], the IC50 is > 300 nM.

For `COc1ccc(CC(=O)O)cc1Oc1ccc(C(F)(F)F)cc1CN(Cc1ccccc1)C(C)=O` [Compound 1-35, (3-{2-[(Acetyl-benzyl-amino)-methyl]-4-trifluoromethyl-phenoxy}-4-methoxy-phenyl)-acetic acid], the IC50 is < 300 nM. Under `CCN(Cc1cc(C(F)(F)F)ccc1Oc1cc(CC(=O)O)ccc1OC)C(=O)OC` [Compound 1-36, (3-{2-[(Ethyl-methoxycarbonyl-amino)-methyl]-4-trifluoromethyl-phenoxy}-4-methoxy-phenyl)-acetic acid] stands > 300 nM; under `COC(=O)N(Cc1ccccc1)Cc1cc(C(F)(F)F)ccc1Oc1cc(CC(=O)O)ccc1OC` [Compound 1-37, (3-{2-[(Benzyl-methoxycarbonyl-amino)-methyl]-4-trifluoromethyl-phenoxy}-4-methoxy-phenyl)-acetic acid], < 300 nM. Under `COC(=O)N(Cc1cc(NC(C)=O)ccc1Oc1cccc(CC(=O)O)c1)[C@@H](C)Cc1ccccc1` [Compound 1-38, [3-(4-Acetylamino-2-{[methoxycarbonyl-((S)-1-methyl-2-phenyl-ethyl)-amino]-methyl}-phenoxy)-phenyl]-acetic acid] stands < 300 nM; under `COC(=O)N(Cc1cc(N(C)C(C)=O)ccc1Oc1cccc(CC(=O)O)c1)[C@@H](C)Cc1ccccc1` [Compound 1-39, [3-(4-(Acetyl-methyl-amino)-2-{[methoxycarbonyl-((S)-1-methyl-2-phenyl-ethyl)-amino]-methyl}-phenoxy)-phenyl]-acetic acid], > 300 nM; under `COC(=O)N(Cc1cc(N(C)C(C)=O)ccc1Oc1cccc(C(C)C(=O)O)c1)[C@@H](C)Cc1ccccc1` (stereo partly drawn) [Compound 1-40, 2-[3-(4-(Acetyl-methyl-amino)-2-{[methoxycarbonyl-((S)-1-methyl-2-phenyl-ethyl)-amino]-methyl}-phenoxy)-phenyl]-propionic acid], > 300 nM. As to `COC(=O)N(Cc1cc(NS(C)(=O)=O)ccc1Oc1cccc(CC(=O)O)c1)[C@@H](C)Cc1ccccc1` [Compound 1-41, [3-(4-Methanesulfonylamino-2-{[methoxycarbonyl-((S)-1-methyl-2-phenyl-ethyl)amino]-methyl}-phenoxy)-phenyl]-acetic acid], the IC50 was < 300 nM. For `COC(=O)N(Cc1cc(N(C)S(C)(=O)=O)ccc1Oc1cccc(CC(=O)O)c1)[C@@H](C)Cc1ccccc1` [Compound 1-42, [3-(4-(Methanesulfonyl-methyl-amino)-2-{[methoxycarbonyl-((S)-1-methyl-2-phenyl-ethyl)-amino]-methyl}-phenoxy)-phenyl]-acetic acid] the value was > 300 nM. Take `COC(=O)N(Cc1cc(N(C)S(C)(=O)=O)ccc1Oc1cccc(C(C)C(=O)O)c1)[C@@H](C)Cc1ccccc1` (stereo partly drawn) [Compound 1-43, 2-[3-(4-(Methanesulfonyl-methyl-amino)-2-{[methoxycarbonyl-((S)-1-methyl-2-phenyl-ethyl)-amino]-methyl}-phenoxy)-phenyl]-propionic acid]: the IC50 is > 1000 nM. For `CCN(Cc1cc(NC(=O)c2ccc(Cl)cc2)ccc1Oc1cc(CC(=O)O)ccc1OC)C(=O)OCc1ccccc1` [Compound 1-44, {3-[2-[(Benzyloxycarbonyl-ethyl-amino)-methyl]-4-(4-chloro-benzoylamino)-phenoxy]-4-methoxy-phenyl}-acetic acid] the value was < 300 nM; for `CCN(Cc1cc(NC(=O)C(C)(C)C)ccc1Oc1cc(CC(=O)O)ccc1OC)C(C)=O` [Compound 1-45, {3-[2-[(Acetyl-ethyl-amino)-methyl]-4-(2,2-dimethyl-propionylamino)-phenoxy]-4-methoxy-phenyl}-acetic acid], < 300 nM; for `CCN(Cc1cc(NC(=O)c2ccc(Cl)cc2)ccc1Oc1cc(CC(=O)O)ccc1OC)C(C)=O` [Compound 1-46, {3-[2-[(Acetyl-ethyl-amino)-methyl]-4-(4-chloro-benzoylamino)-phenoxy]-4-methoxy-phenyl}-acetic acid], < 300 nM. For `CCN(Cc1cc(NC(=O)C(C)(C)C)ccc1Oc1cc(CC(=O)O)ccc1OC)C(=O)C1CC1` [Compound 1-47, {3-[2-[(Cyclopropanecarbonyl-ethyl-amino)-methyl]-4-(2,2-dimethyl-propionylamino)-phenoxy]-4-methoxy-phenyl}-acetic acid] the value was < 300 nM; for `CCN(Cc1cc(NC(=O)c2ccc(Cl)cc2)ccc1Oc1cc(CC(=O)O)ccc1OC)C(=O)C1CC1` [Compound 1-48, (3-{4-(4-Chloro-benzoylamino)-2-[(cyclopropanecarbonyl-ethyl-amino)-methyl]-phenoxy}-4-methoxy-phenyl)-acetic acid], < 300 nM; for `O=C(O)CCn1c2c(c3ccccc31)C[C@H](NS(=O)(=O)c1ccc(F)cc1)CC2` [Ramatroban, reference compound], > 300 nM.

These data come from US8426449B2, “Aminoalkylphenyl antagonists of prostaglandin D2 receptors” (Panmira Pharmaceuticals, LLC, priority 2008, dated 2013).
